# Tests used:
# [1] = Drug excretion in monkey feces treated with [14C]rivoglitazone at 1 mg/kg, po administered via gavage measured during 0 to 72 hrs by radio-HPLC analysis; type: ADME, organism-based, Macaca mulatta; design: dose 1 mg/kg, dosed compound name [14C]Rivoglitazone, route oral; settings: rhesus monkey, in vivo
# [2] = Drug excretion in monkey urine/feces treated with [14C]rivoglitazone at 1 mg/kg, po administered via gavage measured during 0 to 72 hrs by radio-HPLC analysis; type: ADME, organism-based, Macaca mulatta; design: dose 1 mg/kg, dosed compound name [14C]Rivoglitazone, route oral; settings: rhesus monkey, in vivo
# [3] = Retention time of the compound by LC-MS/MS analysis; type: physicochemical; design: dosed compound name [14C]Rivoglitazone
# [4] = Drug excretion in F344/DuCrlCrlj rat feces treated with [14C]rivoglitazone at 1 mg/kg, po administered via gavage measured during 0 to 48 hrs by radio-HPLC analysis; type: ADME, organism-based; design: dose 1 mg/kg, dosed compound name [14C]Rivoglitazone, route oral; settings: in vivo
# [5] = Drug excretion in F344/DuCrlCrlj rat urine/feces treated with [14C]rivoglitazone at 1 mg/kg, po administered via gavage measured during 0 to 48 hrs by radio-HPLC analysis; type: ADME, organism-based; design: dose 1 mg/kg, dosed compound name [14C]Rivoglitazone, route oral; settings: in vivo
# [6] = Drug excretion in F344/DuCrlCrlj rat urine/bile treated with [14C]rivoglitazone at 1 mg/kg, po administered via gavage measured during 0 to 48 hrs by radio-HPLC analysis; type: ADME, organism-based; design: dose 1 mg/kg, dosed compound name [14C]Rivoglitazone, route oral; settings: in vivo
# Rattus norvegicus = assay: Drug level in F344/DuCrlCrlj rat plasma treated with [14C]rivoglitazone assessed as ratio of molar basis AUC (0 to t) at 1 mg/kg, po administered via gavage by LC-MS/MS analysis; type: ADME, organism-based; design: dose 1 mg/kg, dosed compound name [14C]Rivoglitazone, route oral; settings: in vivo
# Rhesus monkey = assay: Drug level in monkey plasma treated with [14C]rivoglitazone assessed as ratio of molar basis AUC (0 to t) at 1 mg/kg, po administered via gavage by LC-MS/MS analysis; type: ADME, organism-based, Macaca mulatta; design: dose 1 mg/kg, dosed compound name [14C]Rivoglitazone, route oral; settings: in vivo
# [7] = Drug excretion in monkey urine treated with [14C]rivoglitazone at 1 mg/kg, po administered via gavage measured during 0 to 72 hrs by radio-HPLC analysis; type: ADME, organism-based, Macaca mulatta; design: dose 1 mg/kg, dosed compound name [14C]Rivoglitazone, route oral; settings: rhesus monkey, in vivo
# [8] = Drug excretion in F344/DuCrlCrlj rat urine treated with [14C]rivoglitazone at 1 mg/kg, po administered via gavage measured during 0 to 48 hrs by radio-HPLC analysis; type: ADME, organism-based; design: dose 1 mg/kg, dosed compound name [14C]Rivoglitazone, route oral; settings: in vivo
# [9] = Drug excretion in F344/DuCrlCrlj rat bile treated with [14C]rivoglitazone at 1 mg/kg, po administered via gavage measured during 0 to 48 hrs by radio-HPLC analysis; type: ADME, organism-based; design: dose 1 mg/kg, dosed compound name [14C]Rivoglitazone, route oral; settings: in vivo
Compound recovery [1],Compound recovery [2],Retention_time [3],Compound recovery [4],Compound recovery [5],Compound recovery [6],AUCmet/AUCp (Rattus norvegicus),AUCmet/AUCp (Rhesus monkey),Compound recovery [7],Compound recovery [8],Compound recovery [9],SMILES
18%,18%,19 min,25.6%,25.6%,metabolite_not_detected,0.72%,1.22%,–,–,–,Cn1c(COc2ccc(CC3SC(=O)NC3=O)cc2)nc2ccc(O)cc21 (configuration not stated)
–,1.3%,18.1 min,metabolite_not_detected,1%,2%,0.02%,0.08%,1.3%,1%,1%,COc1ccc2nc(COc3ccc(CC(C(N)=O)S(C)(=O)=O)cc3)n(C)c2c1 (configuration not stated)
1.7%,2.1%,21.3 min,–,–,–,0.03%,0.02%,0.4%,–,–,COc1ccc2nc(COc3ccc(CC4(O)SC(=O)NC4=O)cc3)n(C)c2c1 (configuration not stated)
0.8%,0.8%,24.1 min,3%,3%,metabolite_not_detected,0.01%,0.25%,–,–,–,COc1ccc2nc(COc3ccc(CC(SC)C(=O)O)cc3)n(C)c2c1 (configuration not stated)
–,–,20.9 min,–,–,–,0.01%,0.05%,–,–,–,COc1ccc2nc(COc3ccc(CC(SC)C(N)=O)cc3)n(C)c2c1 (configuration not stated)
–,–,16.8 min,–,–,–,–,0.03%,–,–,–,COc1ccc2nc(COc3ccc(CC(SSCC(N)C(=O)O)C(=O)O)cc3)n(C)c2c1 (configuration not stated)
–,–,13.8 min,metabolite_not_detected,–,1.3%,–,–,–,–,1.3%,Cn1c(COc2ccc(CC(C(N)=O)S(C)(=O)=O)cc2)nc2ccc(OS(=O)(=O)O)cc21 (configuration not stated)
–,2.6%,15.1 min,metabolite_not_detected,–,1.5%,–,–,2.6%,–,1.5%,Cn1c(COc2ccc(CC3SC(=O)NC3=O)cc2)nc2ccc(O[C@@H]3O[C@H](C(=O)O)[C@@H](O)[C@H](O)[C@H]3O)cc21 (some centres not stated)
6.6%,6.6%,17.2 min,–,–,–,–,1.53%,–,–,–,COc1ccc2nc(COc3ccc(CC(SC(=O)N[C@@H]4O[C@H](C(=O)O)[C@@H](O)[C@H](O)[C@H]4O)C(=O)O)cc3)n(C)c2c1 (some centres not stated)
–,3.8%,17.8 min,–,–,–,–,0.28%,3.8%,–,–,O=C1NC(=O)C(Cc2ccc(OCc3nc4ccc(O)cc4[nH]3)cc2)S1 (configuration not stated)
–,–,21.5 min,–,–,–,0.02%,7.01%,–,–,–,COc1ccc2nc(COc3ccc(CC4SC(=O)NC4=O)cc3)[nH]c2c1 (configuration not stated)
–,–,16.1 min,metabolite_not_detected,3.9%,4.5%,0.08%,0.11%,–,3.9%,0.6%,COc1ccc2nc(COc3ccc(CC(C(N)=O)[S+](C)[O-])cc3)n(C)c2c1 (configuration not stated)
–,1.4%,19.8 min,metabolite_not_detected,–,1%,–,2.15%,1.4%,–,1%,COc1ccc2nc(COc3ccc(CC4SC(=O)N([C@@H]5O[C@H](C(=O)O)[C@@H](O)[C@H](O)[C@H]5O)C4=O)cc3)n(C)c2c1 (some centres not stated)
–,–,13.9 min,–,–,–,–,–,–,–,–,Cn1c(COc2ccc(CC(SC(=O)N[C@@H]3O[C@H](C(=O)O)[C@@H](O)[C@H](O)[C@H]3O)C(=O)O)cc2)nc2ccc(O)cc21 (some centres not stated)
2.9%,2.9%,16.9 min,8.7%,8.7%,metabolite_not_detected,–,–,–,–,–,CSC(Cc1ccc(OCc2nc3ccc(O)cc3n2C)cc1)C(N)=O (configuration not stated)
–,–,9.9 min,metabolite_not_detected,–,3.8%,–,–,–,–,3.8%,Cn1c(COc2ccc(CC(C(N)=O)[S+](C)[O-])cc2)nc2ccc(OS(=O)(=O)O)cc21 (configuration not stated)
–,1.2%,12.9 min,metabolite_not_detected,0.7%,3.5%,–,–,1.2%,0.7%,2.8%,CSC(Cc1ccc(OCc2nc3ccc(O[C@@H]4O[C@H](C(=O)O)[C@@H](O)[C@H](O)[C@H]4O)cc3n2C)cc1)C(N)=O (some centres not stated)
